Reference: a melting point compilation (Tetko et al.; mined from patent text by program, amines drawn as free bases though some values may be those of a salt)

Structure (SMILES)	melting point [°C]
CCOc1ccc2c(c1)n(C1CCCCC1)c(=O)n2Cc1ccc(C(=O)NC(C)(C)CC)cc1OC	164
COC1=C(OC)CC(C=C(C#N)C(N)=O)C=C1 (stereo unspecified)	170 to 171
O=C(c1ccc(Br)cc1)C1CCN(CCc2c[nH]c3ccccc23)CC1	178 to 180
Cn1c(C(F)(F)F)cc(=O)n(-c2cc(OCCC3OCCCO3)c(Cl)cc2F)c1=O	128 to 130
Cc1cc(CCCCCCCOc2ccc(C3=NCCO3)cc2Cl)on1	88
CCCCOc1ccc(-c2cnc(Cl)nc2)cn1	117
CC1=CC(=Cc2cc(C)cc(C3(C)CCCCC3)c2OCc2ccccc2)C(O)C(C2(C)CCCCC2)=C1 (stereo unspecified)	97 to 99
C=C1CC2C3CCC4=CC(=O)C=CC4(C)C3=CCC2(C)C1(O)C(C)=O (stereo unspecified)	185 to 190
NC(=O)COc1ccc([N+](=O)[O-])cc1	153 to 155
CCCCc1ccc(CCc2cc3c(s2)NC(=S)CN=C3c2ccccc2Cl)cc1	152 to 154
CCN1C(=O)C(C)(C)C(=O)N(C)c2cc(CN(CCn3ccc4oc(C)cc4c3=O)Cc3ccccc3-n3cccn3)ccc21	123 to 130
COC(c1nccs1)(c1nccs1)C(F)(F)F	40 to 41
O=C(O)c1cc(S(=O)(=O)N2CCC(CCl)CC2)ccc1Cl	175 to 177
CCC(Oc1cccc([N+](=O)[O-])c1Cl)C1=NCCN1 (stereo unspecified)	100 to 103
COc1nc(C)c(C(C)OC(=O)CCC(=O)O)cc1NC(=O)N1CCN(c2cc(C)cc(C)c2)CC1 (stereo unspecified)	138 to 140
Cc1nc(NC(=O)Nc2cccc3c2C2CCCCN2C3=O)cs1 (stereo unspecified)	146
Cc1cccc2[nH]c(=S)nc(N)c12	> 250
O=C(O)Cn1c(=O)c(=O)[nH]c2cc(Br)c(Br)cc21	> 300
COC(=O)CCCC#Cc1cc(Cl)ccc1NS(=O)(=O)c1cc(OC)ccc1OC	115 to 117
COC(=O)C1=C(C)NC(c2ncsc2Cl)=NC1c1ccc(F)cc1 (stereo unspecified)	118 to 122
CCCOc1cc(CC)c(C(=O)OC)c(C(=O)O)c1	99 to 100
Cn1cnc(COc2nn3c(-c4ccc(F)cc4)nnc3cc2-c2ccsc2)n1	254 to 255
CN(C)c1nc2n(n1)CC1=CSC(=O)C1=N2	295 to 298
Cc1cc(-c2nncc3c(C(C)(C)C)c(OCc4ncnn4C)nn23)no1	171 to 174
OCc1cn(-c2ccc(OC(F)(F)F)c(Cl)c2)cn1	115 to 116
NS(=O)(=O)C1(C2C(Cl)=CC=CN2C(F)(F)F)C=CC(Cl)=CC1Cl (stereo unspecified)	125 to 126
CCOC(=O)c1cnn2c1c(O)nc1c(C)nn(C)c12	246 to 247

Structure (SMILES)	melting point [°C]
CNc1nc(-c2cccc(NC(=O)c3ccncc3)c2)c2cc(OC)c(OC)cc2n1	228 to 230
CCCc1nc2c(N)nc3ccccc3c2n1CCOCCCS(=O)(=O)C(C)C	176 to 177
CCCCCCc1cc2c(cc1S)C(=O)CC2	100
CCCCc1c(OC)cc(C)c(C=CC(C)=CC=CC(C)=CC(=O)OCC)c1C	147 to 148
Cn1ncc(C(=O)N2CCOCC2)c1C(=O)Nc1ccn2nc(-c3ccnc(F)c3)nc2c1	> 280
Cc1sc2c(c1C)C(c1ccc(Cl)cc1)=NC(CC(=O)N1CCCCC1)c1nnc(C)n1-2 (stereo unspecified)	260 to 262
CCC12CCC3C4CCC(=O)C=C4CCC3C1CCC2OC(=O)CC(C)C (stereo unspecified)	82 to 89
CCOC(=O)CC(=O)c1cc(F)c(OP(=O)(Oc2ccccc2)Oc2ccccc2)nc1Nc1ccc(F)cc1F	85 to 86
CC#CCOc1ccc(S(=O)(=O)C(C(=O)NO)c2ccc(Cl)cc2)cc1 (stereo unspecified)	140
COC(=S)N(C)C[C@@H]1CN(c2cc(F)c(N3CC(=O)N(C)C3)c(F)c2)C(=O)O1	130
CC(=O)c1ccc(NC(=O)Nc2cc(C(C)=O)cc(C(C)=O)c2)cc1	251 to 252
CCC(Br)C(=O)c1ccc(OC)c(OCC(F)(F)F)c1 (stereo unspecified)	120 to 121
CCOC(=O)c1cc2c(O)nncc2nc1N1CCCCC1	178 to 179
CCc1nc(C)ccc1OC1SCC(O)C(O)C1O (stereo unspecified)	172 to 174
CC(C)Sc1ccoc1C(=O)Nc1nnn[nH]1	201 to 203
O=c1[nH]c2cc(F)c(O)c([N+](=O)[O-])c2[nH]c1=O	> 360
Cc1csc(C2=NOCCO2)c1Br	67
O=S(=O)(Nc1cc(Cl)c(Oc2nc3ccc(Cl)cc3s2)c(Cl)c1)c1ccc(Cl)cc1Cl	73 to 75
COc1ccc(CCN2CCC(Cc3nc4ncnc(O)c4n3Cc3ccc(F)cc3)CC2)cc1	122
C1=C(c2ccccc2)CCN(Cc2n[nH]c3c2CCc2ccccc2-3)C1	175 to 176
CC(C)=CCOc1ccc(C(=O)C=Cc2c(Cl)cccc2Cl)c(O)c1	101 to 102
CCC(CC)NC(=O)C(C)(C)COc1cccc2nc(C)c(C(=O)O)c(N)c12	172 to 174
CCOC(=O)c1cc2cc(OC(F)(F)F)cc(N)c2[nH]1	190 to 191
CCOC(=O)c1cn(CCCl)c2cc(N3CCN(C)CC3)c(F)cc2c1=O	208
CC(C)[C@H](NC(=O)N(C)Cc1csc(NC(=O)OC(C)(C)C)n1)C(=O)N[C@@H](Cc1ccccc1)C[C@H](O)[C@H](Cc1ccccc1)NC(=O)OCc1cccnc1	103 to 105
CCc1ccc(C2CCCCC2)nc1	79 to 81
Cc1ccc(-c2ccc3c(c2)C=C(C(=O)Nc2ccc(CN4CCC(Cc5ccccc5)CC4)cc2)CC3)cc1	199 to 201

The next lines start with the values.

melting point [°C]	Structure (SMILES)
144	COc1ccccc1N(CC(=O)OC(C)(C)C)C(=O)CN1C(=O)c2ccccc2C1=O
214 to 217	Cc1cc2c(cc1C(F)(F)F)NC(=O)CC(c1cccc(-c3nc(CO)sc3C)c1)=N2
92 to 93.5	CSc1ccc(C(O)c2ccccc2)cc1 (stereo unspecified)
26 to 30	CC(C)CCOC(=O)c1ccc2c(=O)c3ccccc3ccc2c1
72.7	O=S(=O)(OCC(F)(F)F)c1ccc2ccccc2c1
68 to 70	C=C1c2ccccc2CC(=O)Cc2ccccc21
143 to 146	Cc1oc(C(N)=O)c(C)c1-c1nc2ccc(C(=O)c3ccccc3)cc2[nH]1
176 to 178	O=C(O)c1ccc(C(=O)NC/C=C/c2ccccc2)cc1
114 to 115	CCOC(Nc1ccccc1)(OCC)c1ccnc(C(=O)c2ccccc2)c1
148 to 150	CC(C)(C)C(=O)Oc1cc(C=CC(=O)c2ccccc2)cc([N+](=O)[O-])c1O
51 to 54	COc1ccc(NS(=O)(=O)c2ccc(N)cc2OC)cc1
80 to 85	CN1CCC2(CC1)C(=O)N(C)c1ccc(Cl)cc1C(c1ccccc1)N2C (stereo unspecified)
38 to 40	Fc1ccc(-c2ccc(C(F)(F)F)cn2)cc1
252	COc1cccc2c1[nH]c1c(C(=O)O)cccc12
120 to 127	OCCc1cn2ccccc2n1
207 to 209	N#Cc1ccc2cc(Cc3cc4ccc(C#N)cc4o3)oc2c1
228 to 230	CSC1C(=O)Nc2cccc([N+](=O)[O-])c21 (stereo unspecified)
113 to 114	Brc1ccc2ccc3ccccc3c2n1
95	Cc1nn(C)c(C)c1-c1cccc(OC2SCC(O)C(O)C2O)c1 (stereo unspecified)
> 250	Nc1ccn2c(=O)c(C(=O)O)ccc2c1
41 to 43	CCCCCCCCCCCCc1cc(Cc2ccccc2)on1
135 to 138	CN(CCc1[nH]c2ccccc2c1-c1ccccc1)C(=O)CCl
270 to 274	Cn1cc(CO)c2c3c(c(-c4ccccc4Cl)cc21)C(=O)NC3=O
94 to 99	NS(=O)(=O)c1ccccc1OCCO

melting point [°C]	Structure (SMILES)
167 to 171	C[C@@H](NS(=O)(=O)N1CCN(c2ccc(OCc3ccc4ccccc4c3)cc2)CC1)C(=O)O
142 to 143	CCN(CC)CCNC(=O)Cn1c(-c2ccc(Cl)cc2)nc2cccnc21
231 to 232	CC(C)c1cccc(C(C)C)c1NC(=O)CC1c2ccccc2Oc2ccccc21
182 to 183	COc1ccc2c(c1)CCc1nn(-c3nc4ccccc4s3)c(O)c1-2
228 to 229	COc1cccc(CNC(=O)c2nc3scc(CC(=O)O)c3c(=O)[nH]2)c1
220 to 222	COc1cc(Nc2c(C#N)cnc3cc(Sc4ccccc4)c(OC)cc23)c(Cl)cc1Cl
142	O=C(NC(Cc1ccccc1)C(=O)O)OCc1ccc(-c2ccccc2)cc1 (stereo unspecified)
66 to 68	Cc1sc(CO)cc1CC#N
146 to 147	CC(C)(C)n1c(=O)[nH]c2ccccc21
> 300	Cc1nc(NC(=O)c2ccc(-c3nn[nH]n3)cc2)sc1C(=O)NCc1ccccc1
193 to 197	Cc1ccc(-c2nc3cccnc3n2CC(=O)N(C)C)s1
130 to 131	CCN(C(=O)OC)c1cn2cc(Sc3ccccc3)ccc2n1
198 to 200	NC(=O)N1C(=O)C(=C(OC(=O)C=CC(=O)O)c2cccs2)c2cc(Cl)ccc21
155 to 163	O=C(O)c1nc2n(n1)-c1cccnc1N(c1ccccc1Cl)C2
113 to 114	NCCC1(O)c2ccccc2CCc2ccccc21
177 to 179	N#Cc1cc(=O)c(-c2ccccc2)co1
192 to 193	c1ccc(Sc2c(CCc3nc4ccccc4o3)[nH]c3ccccc23)cc1
138 to 140	O=C(Nc1ccccc1Oc1ccc(Cl)cc1)C1CCNCC1
73 to 76	C[C@@H]1O[C@@]1(Cn1ccnc1)c1ccc(F)cc1F
201 to 202	CCCN(Cc1cccc(C(=N)N)c1)C(=O)Nc1ccc(-c2ccccc2S(=O)(=O)NC(C)(C)C)cc1
168 to 169	O=C(NCCO)c1cccc(-c2ccc3c(n2)N(c2ccc(Cl)cc2Cl)CC3)c1
195 to 196	CCC(O)(CC(=O)OC(C)(C)C)c1cc2n(c(=O)c1COC(C)=O)Cc1cc3ccccc3nc1-2 (stereo unspecified)
64 to 65	OC/C(=C/c1ccccc1)c1cccs1
